Source: ChEMBL document CHEMBL3352801, “Synthesis and lipid-lowering evaluation of 3-methyl-1H-purine-2,6-dione derivatives as potent and orally available anti-obesity agents” (Eur J Med Chem, 2014)
≈ marks a conversion by molar mass, not a printed value.

Assays:
[1] = tested on: Mus musculus; test: Antiobesity activity in diet-induced obese C57Bl/6 mouse assessed as reduction in fasting blood glucose at 50 mg/kg/day, po for 4 weeks administered with high-fat diet (reference value: 5.0 +/- 1.30 mM); type: functional
[2] = tested on: Rattus norvegicus; test: Acute toxicity in Sprague-Dawley rat assessed as change in body weight at 2.5 g/kg, po as single dose measured after 7 days; type: organism-based; settings: in vivo, 2500 mg/kg, 168 h
[3] = Cmax in Sprague-Dawley rat at 20 mg/kg, po; type: ADME, organism-based; design: dose 20 mg/kg, route oral; settings: in vivo
[4] = tested on: Mus musculus; test: Antiobesity activity in diet-induced obese C57Bl/6 mouse assessed as increase in HDL level at 50 mg/kg/day, po for 4 weeks administered with high-fat diet (reference value: 0.60 +/- 0.17 mM); type: functional
[5] = AUC (0 to t) in Sprague-Dawley rat at 20 mg/kg, po; type: ADME, organism-based; design: dose 20 mg/kg, route oral; settings: plasma
[6] = tested on: Mus musculus; test: Increase in glucose tolerance in diet-induced obese C57Bl/6 mouse assessed as time required for reducing plasma glucose to initial state at 50 mg/kg/day, po for 4 weeks by oral glucose tolerance test; type: functional
[7] = Total clearance in Sprague-Dawley rat at 5 mg/kg, iv; type: ADME, organism-based; design: dose 5 mg/kg, route intravenous; settings: in vivo
[8] = Solubility of the compound at room temperature; type: physicochemical
[9] = tested on: Rattus norvegicus; test: Volume of distribution in Sprague-Dawley rat at 20 mg/kg, po; type: ADME, organism-based; design: dose 20 mg/kg, route oral; settings: in vivo
[10] = tested on: Mus musculus; test: Increase in glucose tolerance in diet-induced obese C57Bl/6 mouse assessed as rate of reducing plasma glucose at 50 mg/kg/day, po for 4 weeks by oral glucose tolerance test; type: functional
[11] = tested on: Mus musculus; test: Antiobesity activity in diet-induced obese C57Bl/6 mouse assessed as reduction in triglyceride level at 50 mg/kg/day, po for 4 weeks administered with high-fat diet (reference value: 0.93 +/- 0.09 mM); type: functional
[12] = tested on: Rattus norvegicus; test: Acute toxicity in Sprague-Dawley rat assessed as mortality at 2.5 g/kg, po as single dose measured after 7 days; type: organism-based; settings: in vivo, 2500 mg/kg, 168 h
[13] = tested on: Mus musculus; test: Antiobesity activity in diet-induced obese C57Bl/6 mouse assessed as change in insulin level at 50 mg/kg/day, po for 4 weeks administered with high-fat diet (reference value: 11.85 +/- 2.6 mU); type: functional
[14] = Tmax in Sprague-Dawley rat at 20 mg/kg, po; type: ADME, organism-based; design: dose 20 mg/kg, route oral; settings: in vivo
[15] = tested on: Mus musculus; test: Antiobesity activity in diet-induced obese C57Bl/6 mouse assessed as reduction in FFA level at 50 mg/kg/day, po for 4 weeks administered with high-fat diet (reference value: 19.55 +/- 1.57 ng/L); type: functional
[16] = tested on: 3T3-L1; test: Inhibition of triglyceride accumulation in mouse 3T3L1 cells at 10 uM after 24 hrs; type: functional; settings: 3T3-L1, 24 h
[17] = Half life in Sprague-Dawley rat at 5 mg/kg, iv; type: ADME, organism-based; design: dose 5 mg/kg, route intravenous; settings: in vivo
[18] = tested on: Rattus norvegicus; test: Acute toxicity in Sprague-Dawley rat assessed as clinical signs at 2.5 g/kg, po as single dose measured after 7 days; type: organism-based; settings: in vivo, 2500 mg/kg, 168 h
[19] = tested on: Mus musculus; test: Toxicity in diet-induced obese C57Bl/6 mouse assessed as change in ALT level at 50 mg/kg/day, po for 4 weeks administered with high-fat diet (reference value: 33.00 +/- 18.23 U/L); type: organism-based; design: route oral; settings: in vivo, 672 h
[20] = tested on: Mus musculus; test: Antiobesity activity in diet-induced obese C57Bl/6 mouse assessed as reduction in body weight at 50 mg/kg/day, po for 4 weeks administered with high-fat diet; type: functional; design: scale not given: the % may be the effect or the level left
[21] = tested on: Mus musculus; test: Toxicity in diet-induced obese C57Bl/6 mouse assessed as change in AST level at 50 mg/kg/day, po for 4 weeks administered with high-fat diet (reference value: 125.00 +/- 35.00 U/L); type: organism-based; design: route oral; settings: in vivo, 672 h
[22] = tested on: Mus musculus; test: Antiobesity activity in diet-induced obese C57Bl/6 mouse assessed as reduction in LDL level at 50 mg/kg/day, po for 4 weeks administered with high-fat diet (reference value: 0.14 +/- 0.07 mM); type: functional
[23] = Volume of distribution in Sprague-Dawley rat at 5 mg/kg, iv; type: ADME, organism-based; design: dose 5 mg/kg, route intravenous; settings: in vivo
[24] = Cmax in Sprague-Dawley rat at 5 mg/kg, iv; type: ADME, organism-based; design: dose 5 mg/kg, route intravenous; settings: in vivo
[25] = tested on: Mus musculus; test: Toxicity in diet-induced obese C57Bl/6 mouse assessed as change in food intake at 50 mg/kg/day, po for 4 weeks administered with high-fat diet; type: organism-based; design: route oral; settings: in vivo, 672 h
[26] = tested on: Mus musculus; test: Antiobesity activity in diet-induced obese C57Bl/6 mouse assessed as reduction in hepatic triglyceride level at 50 mg/kg/day, po for 4 weeks administered with high-fat diet by Oil Red O staining-based histological method; type: functional; design: scale not given: the % may be the effect or the level left
[27] = tested on: Mus musculus; test: Antiobesity activity in diet-induced obese C57Bl/6 mouse assessed as reduction in HOMA-IR value at 50 mg/kg/day, po for 4 weeks administered with high-fat diet (reference value: 3.06 +/- 0.85 no_unit); type: functional
[28] = Tmax in Sprague-Dawley rat at 5 mg/kg, iv; type: ADME, organism-based; design: dose 5 mg/kg, route intravenous; settings: in vivo
[29] = AUC (0 to t) in Sprague-Dawley rat at 5 mg/kg, iv; type: ADME, organism-based; design: dose 5 mg/kg, route intravenous; settings: plasma
[30] = Half life in Sprague-Dawley rat at 20 mg/kg, po; type: ADME, organism-based; design: dose 20 mg/kg, route oral; settings: in vivo
[31] = tested on: Mus musculus; test: Antiobesity activity in diet-induced obese C57Bl/6 mouse assessed as loss of epididymal fat mass at 50 mg/kg/day, po for 4 weeks administered with high-fat diet; type: functional
[32] = Oral bioavailability in Sprague-Dawley rat at 20 mg/kg; type: ADME, organism-based; settings: in vivo
[33] = tested on: Mus musculus; test: Antiobesity activity in diet-induced obese C57Bl/6 mouse assessed as loss of liver weight at 50 mg/kg/day, po for 4 weeks administered with high-fat diet; type: functional
[34] = Total clearance in Sprague-Dawley rat at 20 mg/kg, po; type: ADME, organism-based; design: dose 20 mg/kg, route oral; settings: in vivo
[35] = tested on: Mus musculus; test: Toxicity in diet-induced obese C57Bl/6 mouse assessed as change in food intake at 150 mg/kg/day, po for 4 weeks administered with high-fat diet; type: organism-based; design: route oral; settings: in vivo, 672 h
[36] = tested on: Mus musculus; test: Toxicity in diet-induced obese C57Bl/6 mouse assessed as change in AST level at 150 mg/kg/day, po for 4 weeks administered with high-fat diet (reference value: 125.00 +/- 35.00 U/L); type: organism-based; design: route oral; settings: in vivo, 672 h
[37] = tested on: Mus musculus; test: Toxicity in diet-induced obese C57Bl/6 mouse assessed as change in ALT level at 150 mg/kg/day, po for 4 weeks administered with high-fat diet (reference value: 29.6 +/- 8.29 U/L); type: organism-based; design: route oral; settings: in vivo, 672 h
[38] = tested on: Mus musculus; test: Toxicity in diet-induced obese C57Bl/6 mouse assessed as change in ALT level at 150 mg/kg/day, po for 4 weeks administered with high-fat diet (reference value: 33.00 +/- 18.23 U/L); type: organism-based; design: route oral; settings: in vivo, 672 h
[39] = tested on: Mus musculus; test: Toxicity in diet-induced obese C57Bl/6 mouse assessed as change in AST level at 150 mg/kg/day, po for 4 weeks administered with high-fat diet (reference value: 128.00 +/- 20.59 U/L); type: organism-based; design: route oral; settings: in vivo, 672 h

CCn1c(-c2ccc(OCCN(C)c3ccccn3)cc2)nc2c1c(=O)n(Cc1ccccc1C#N)c(=O)n2C
Activity [1]: 5.15 mM
Activity [2]: Non-toxic
Cmax [3]: 54.4 ng/mL
Activity [4]: 1.96 mM
AUC(0-t) [5]: 453 ng·h/mL
Time [6]: >40 min
clearance [7]: 189 mL/min/kg
solubility [8]: 1000 µg/mL (≈ 1870 µM)
Vd [9]: 416.501 L/kg
Activity [10]: >2 %/min
Activity [11]: 1.02 mM
Activity [12]: Non-toxic
Activity [13]: 13.35 mU
Tmax [14]: 2.27 h
Activity [15]: 22.67 ng/L
inhibition at 10 µM [16]: 64.5%
half-life [17]: 8.83 h
Activity [18]: Non-toxic
Activity [19]: 20 U/L
Activity [20]: 15.96%
Activity [21]: 120 U/L
Activity [22]: 0.11 mM
Vd [23]: 142 L/kg
Cmax [24]: 342 ng/mL
Activity [25]: Non-toxic
Activity [26]: 7.17%
Activity [27]: 3.06
Tmax [28]: 4.98 min
AUC(0-t) [29]: 404 ng·h/mL
half-life [30]: 6.3 h
Activity [31]: 21.65%
bioavailability [32]: 28%
Activity [33]: 16.8%
CL/F [34]: 1030 mL/min/kg

CN(C)C(=N)N=C(N)N [METFORMIN]
Activity [35]: Non-toxic
Activity [36]: 110 U/L
Activity [37]: 46.29 U/L
Activity [38]: 21.67 U/L
Activity [39]: 172 U/L
